Tests used:
Experiment in all cases: Test C pre/postemergence
Type in all cases: in vivo
[1] = system: cocklebur (Xanthium strumarium); conditions: for Cocklebur plant response rating: scale 0 to 100 (0 no effect, 100 complete control)
From the text: (§1) Seeds or nutlets of plant species selected from bermudagrass (Cynodon dactylon), Surinam grass (Brachiaria decumbens), cocklebur (Xanthium strumarium), corn (Zea mays), crabgrass (Digitaria sanguinalis), woolly cupgrass (Eriochloa villosa), giant foxtail (Setaria faberii), goosegrass (Eleusine indica), johnsongrass (Sorghum halepense), kochia (Kochia scoparia), lambsquarters (Chenopodium album), morningglory (Ipomoea coccinea), eastern black nightshade (Solanum ptycanthum), yellow nutsedge (Cyperus esculentus), pigweed (Amaranthus retroflexus), common ragweed (Ambrosia elatior), soybean (Glycine max), common (oilseed) sunflower (Helianthus annuus), and velvetleaf (Abutilon theophrasti) were planted and treated preemergence with test chemicals formulated in a non-phytotoxic solvent mixture which included a surfactant.
(§2) At the same time, plants selected from these crop and weed species and also winter barley (Hordeum vulgare), blackgrass (Alopecurus myosuroides), canarygrass (Phalaris minor), chickweed (Stellaria media), downy brome (Bromus tectorum), green foxtail (Setaria viridis), Italian ryegrass (Lolium multiflorum), wheat (Triticum aestivum), wild oat (Avena fatua) and windgrass (Apera spica-venti) were treated with postemergence applications of some of the test chemicals formulated in the same manner. Plants ranged in height from 2 to 18 cm (1- to 4-leaf stage) for postemergence treatments. Plant species in the flooded paddy test consisted of rice (Oryza sativa), umbrella sedge (Cyperus difformis), duck salad (Heteranthera limosa) and barnyardgrass (Echinochloa crus-galli) grown to the 2-leaf stage for testing. Treated plants and controls were maintained in a greenhouse for 12 to 14 days, after which time all species were compared to controls and visually evaluated. Plant response ratings, summarized in Table C, are based on a scale of 0 to 100 where 0 is no effect and 100 is complete control. A dash (-) response means no test result.

kochia (Kochia scoparia) = conditions: for Kochia plant response rating: scale 0 to 100 (0 no effect, 100 complete control)
From the text: as §1, §2

[2] = system: pigweed (Amaranthus retroflexus); conditions: for Pigweed plant response rating: scale 0 to 100 (0 no effect, 100 complete control)
From the text: as §1, §2

[3] = system: crabgrass (Digitaria sanguinalis); conditions: for Crabgrass plant response rating: scale 0 to 100 (0 no effect, 100 complete control)
From the text: as §1, §2

[4] = system: johnsongrass (Sorghum halepense); conditions: for Johnsongrass plant response rating: scale 0 to 100 (0 no effect, 100 complete control)
From the text: as §1, §2

[5] = Postemergence, 250 g ai/ha, scale 0 to 100
[6] = Postemergence, 500 g ai/ha, scale 0 to 100
[7] = Preemergence, 62 g ai/ha, scale 0 to 100, 0 no effect, 100 complete control
[8] = Preemergence, 125 g ai/ha, scale 0 to 100
[9] = Preemergence, 250 g ai/ha, scale 0 to 100
[10] = Preemergence, 500 g ai/ha, scale 0 to 100

Structure (SMILES) | Cocklebur plant response rating ([1]; Postemergence, 62 g ai/ha) | Cocklebur plant response rating ([1]; Postemergence, 125 g ai/ha) | Plant response rating, Cocklebur [1, 5] | Plant response rating, Cocklebur [1, 6] | Plant response rating, Cocklebur [1, 7] | Plant response rating, Cocklebur [1, 8] | Plant response rating, Cocklebur [1, 9] | Kochia plant response rating (kochia (Kochia scoparia); Postemergence, 62 g ai/ha) | Kochia plant response rating (kochia (Kochia scoparia); Postemergence, 125 g ai/ha) | Plant response rating, Kochia (kochia (Kochia scoparia); [5]) | Plant response rating, Kochia (kochia (Kochia scoparia); [6]) | Pigweed plant response rating ([2]; Postemergence, 62 g ai/ha) | Pigweed plant response rating ([2]; Postemergence, 125 g ai/ha) | Plant response rating, Pigweed [2, 5] | Plant response rating, Pigweed [2, 6] | Crabgrass plant response rating ([3]; Postemergence, 62 g ai/ha) | Crabgrass plant response rating ([3]; Postemergence, 125 g ai/ha) | Plant response rating, Crabgrass [3, 5] | Plant response rating, Crabgrass [3, 6] | Plant response rating, Johnsongrass [4, 6] | other results
CNN=Cc1nc(C2CC2)nc(N)c1Br [Compound 49] | 75 | 95 | 95 | 95 | 20 | 95 | 95 | 20 | 45 | 95 | 100 | 65 | 80 | 95 | 95 | 0 | 65 | 75 | 95 | 70 | Plant response rating, Cocklebur [1, 10]: 100; Plant response rating, Kochia (kochia (Kochia scoparia); [7]): 100; Plant response rating, Kochia (kochia (Kochia scoparia); [8]): 100; Plant response rating, Kochia (kochia (Kochia scoparia); [9]): 100; Plant response rating, Kochia (kochia (Kochia scoparia); [10]): 100; Plant response rating, Pigweed [2, 7]: 85; Plant response rating, Pigweed [2, 8]: 90; Plant response rating, Pigweed [2, 9]: 100; Plant response rating, Pigweed [2, 10]: 100; Plant response rating, Crabgrass [3, 7]: 95; Plant response rating, Crabgrass [3, 8]: 95; Plant response rating, Crabgrass [3, 9]: 95; Plant response rating, Crabgrass [3, 10]: 100; Johnsongrass plant response rating ([4]; Postemergence, 125 g ai/ha): 20; Plant response rating, Johnsongrass [4, 5]: 35; Plant response rating, Johnsongrass [4, 7]: 45; Plant response rating, Johnsongrass [4, 8]: 65; Plant response rating, Johnsongrass [4, 9]: 80; Plant response rating, Johnsongrass [4, 10]: 85
CN(C)N=Cc1nc(C2CC2)nc(N)c1Br [Compound 50] | 40 | 40 | 65 | 90 | 70 | 85 | 95 | 20 | 55 | 65 | 95 | 75 | 80 | 85 | 95 | 60 | 60 | 75 | 80 | 60 | Plant response rating, Cocklebur [1, 10]: 95; Plant response rating, Kochia (kochia (Kochia scoparia); [8]): 0; Plant response rating, Kochia (kochia (Kochia scoparia); [9]): 20; Plant response rating, Kochia (kochia (Kochia scoparia); [10]): 90; Plant response rating, Pigweed [2, 7]: 75; Plant response rating, Pigweed [2, 8]: 90; Plant response rating, Pigweed [2, 9]: 95; Plant response rating, Pigweed [2, 10]: 100; Plant response rating, Crabgrass [3, 7]: 90; Plant response rating, Crabgrass [3, 8]: 90; Plant response rating, Crabgrass [3, 9]: 95; Plant response rating, Crabgrass [3, 10]: 95; Johnsongrass plant response rating ([4]; Postemergence, 62 g ai/ha): 0; Plant response rating, Johnsongrass [4, 7]: 0; Plant response rating, Johnsongrass [4, 8]: 55; Plant response rating, Johnsongrass [4, 9]: 65; Plant response rating, Johnsongrass [4, 10]: 85
CC(=O)NN=Cc1nc(C2CC2)nc(N)c1Br [Compound 51] | 65 | 65 | 70 | 85 | – | – | – | 15 | 60 | 85 | 95 | 65 | 70 | 80 | 85 | 0 | 0 | 0 | 45 | 0 | Johnsongrass plant response rating ([4]; Postemergence, 62 g ai/ha): 0; Plant response rating, Johnsongrass [4, 5]: 0

— patent US8802597B2, “Herbicidal pyrimidines” (E I du Pont de Nemours and Company, priority 2003, dated 2014)
